System: Agaricus bisporus mycelium
Assay: Stimulation of the growth of Agaricus bisporus mycelium on PDA culture medium
Type: cell-based
Details: for effect on the growth of the Agaricus bisporus mycelium: purified terpene at 40 μL/L, TripleX make (Amycel)
Protocol: • Mixing, in a sterile container, the essential oil or oils or the terpene or terpenes selected according to the invention, with the surfactant or surfactants, in equal portions: […], therefore preparing 200 μl in total.
• Preparing 2 times 1 litre of PDA in accordance with the instructions of the supplier, in separate containers. • Sterilising the two solutions at the same time, 15 minutes at 121° C. in an autoclave.
• Waiting until the two solutions drop in temperature, to reach approximately 40° C. • Homogenising and then pouring the composition of biostimulants, into one of the two containers. • Pouring the same volume of the surfactant or surfactants used, into the second container. • Placing under stirring, and then pouring the 2 litres of solutions into annotated petri dishes. • Placing the petri dishes in an incubator at 23° C.±1° C. and 80% humidity.
• Inoculating all the petri dishes with the mushroom strain selected. • Re-placing the petri dishes in an incubator at 23° C.±1° C. and 80% humidity.
• After 7 days, tracing the contour of the mycelium under the petri dishes, with a fine marker. • Once again tracing the contour of the mycelium after 14 and 21 days following the inoculation. • Measuring its growth to within 0.5 mm, on 4 axes separated by 90°, for each petri dish. • Calculating the mean growths measured, then determining the percentage inhibition or biostimulation compared with the reference, which contains only the surfactant or surfactants, without the essential oil or oils or the terpene and terpenes use.
The manipulations for each essential oil tested were reproduced 40 times, using the Agaricus bisporus mycelium of Heirloom make, supplied by the American company Amycel.
The tests were performed on three strains of Agaricus bisporus (of Heirloom and TripleX makes from the company Amycel and Tuscan from the company Sylvan) with the purified terpene ([…]. […]

| Structure (SMILES) | effect on the growth of the Agaricus bisporus mycelium | effect on the growth of the mycelia of three strains of Agaricus bisporus (purified terpene, Heirloom and TripleX makes at 40 or 80 μL/L, Tuscan make at 80 or 100 μL/L, effect reinforced by increasing the concentration) |
| --- | --- | --- |
| C=C1CCC2CC1C2(C)C (stereo not drawn) [β-pinene] | biostimulant effect | very marked effect of biostimulation |
| CC1=CCC2CC1C2(C)C (stereo not drawn) [α-pinene, reference compound] | inhibiting effect | – |
